The record followed here is patent US11478474B2, “2-(3′-(hydroxymethyl)-1-methyl-5-((5-(2-methyl-4-(oxetan-3-yl)piperazin-1-yl)pyridin-2-yl)amino)-6-oxo-1,6-dihydro-[3,4′-bipyridin]-2′-yl)-7,7-dimethyl-7,8-dihydro-2H-cyclopenta[4,5]pyrrolo[1,2-a]pyrazin-1(6H)-one as a BTK inhibitor” (HUTCHISON MEDIPHARMA LIMITED, priority 2020, dated 2022).

The subject of assay [1] is B cell activation in rat whole blood. Description: Determination of B cell activity in whole blood of rats (anti-rat IgD induced B cell activation, flow cytometry). Type of assay: cell-based. As to conditions: anti-rat immunoglobulin D 10 μg/mL, 18 hours, inhibition of B cell activation. The method, then:
Example 4 Determination of B Cell Activity in Whole Blood of Rats
1. Reagents and Materials
Peripheral whole blood of female Wistar rats;
In the determination of the compound activity, the collected peripheral whole blood of rat was added to a 96 well plate at 80 μL/well and cultured in a 5% CO2, 37° C. cell incubator. After half an hour, the test compound was diluted with PBS in a 3-fold gradient to the corresponding concentrations, and then the diluted test compound with different concentrations was added to the culture system of rat whole blood at 10 μL/well (the final concentration of the test compound was 1.0, 0.33, 0.11, 0.037, 0.012, 0.0041, 0.0014, and 0.0005 μM, the final concentration of DMSO was 0.3%, double replicate wells), or the control solution (0.3% DMSO, 6 replicate wells) was added to the corresponding well at 10 μL/well, which were incubated in the cell incubator for one hour. Then 10 μL/well of anti-rat immunoglobulin D diluted in PBS (the final concentration was 10 μg/mL) was add to the treating wells of the test compound and control wells for anti-rat immunoglobulin D, or 10 μL/well of PBS was added to the negative control wells, which were mixed well to continue the culture in a 5% CO2, 37° C. cell incubator, and incubated for 18 hours.
On the second day, the 96-well plates were taken out and the flow cytometry antibody mixture (the final concentration of anti-rat B220PE antibody was 1 μg/mL and the final concentration of anti-rat CD86 FITC antibody was 1 μg/mL) diluted with PBS was added to each well of plate, which were incubated for 30 minutes in the dark, and then 50 μL of blood from each well was pipetted to the freshly prepared 500 μL of lysis buffer to lyse red blood cells. The plates were shaken for 20 minutes, centrifuged to remove the supernatant, then washed, fixed, and detected on a flow cytometer.
The B cell activation in the sample was determined by flow dyeing method.
The average value of the proportion of activated B cells in the wells with anti-rat immunoglobulin D but without the test compound was used as the control treating well for anti-rat immunoglobulin D, and the average value of the proportion of activated B cells in the wells without immunoglobulin D stimulation and without the test compound was used as the negative control treating well. According to the B cell activation ratio in each well, the inhibition ratio (%) of each concentration was calculated, and then the IC50 value was obtained by using the 205 model in XL-Fit 5.3 software (ID Business Solutions Limited).
The inhibition ratio is calculated as follows: inhibition ratio (%)=100%−{(treating well for the test compound−negative control treating well)/(control treating well for anti-rat immunoglobulin D−negative control treating well)}×100%, wherein,
Treating well for the test compound: represents the B cell activation ratio in rat whole blood treated with anti-rat immunoglobulin D and the test compound.
Control treating well for anti-rat immunoglobulin D: represents the B cell activation ratio in rat whole blood treated with anti-rat immunoglobulin D but without the test compound.
Negative control treating well: represents the B cell activation ratio in rat whole blood without the test compound and without immunoglobulin stimulation.
Through the above-mentioned test, the compound of the present invention has a potency to inhibit B cell activation in rat whole blood.
On the technique in general: In flow cytometry, cells or beads pass a laser one at a time.

The target in assay [2] is phosphorylated BTK in Ramos cells (Homo sapiens (Human), UniProt Q06187). Put plainly: Determination of phosphorylated BTK in Ramos cells (BTK phospho-Y223 HTRF). Type of assay: cell-based. Particulars: anti-human IgM + hydrogen peroxide stimulation. Put shortly:
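BTK Y223 phosphorylation measured by HTRF (665/615 nm) in lysates of Ramos cells. Cells were serum-starved 2 h, exposed to compound for 1 h (final 0.00018–3.0 μM, 0.3% DMSO), then stimulated 10 min with 10 μg/mL anti-IgM and 3.3 mM H2O2. IC50 derived from percent inhibition between unstimulated and stimulated controls.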

In a further assay the target is BTK recombinant protein (Homo sapiens (Human), UniProt Q06187). Description: Determination of biochemical BTK (Z'-LYTE kinase assay). The method, boiled down:
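Human BTK recombinant kinase (3.32 nM final) was preincubated with compound for 30 min at 4 °C. Reaction ran 1 h at room temperature with Tyr01 FRET peptide (2 μM) and ATP (32 μM); development protease then added. Coumarin 445 nm/fluorescein 520 nm emission ratio (400 nm excitation) gave inhibition across 8 concentrations, 3000–1.37 nM.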

One may read the IC50 as the concentration at which inhibition is half-maximal.

phosphorylated BTK in Ramos cells, sequence (Q06187 whole entry): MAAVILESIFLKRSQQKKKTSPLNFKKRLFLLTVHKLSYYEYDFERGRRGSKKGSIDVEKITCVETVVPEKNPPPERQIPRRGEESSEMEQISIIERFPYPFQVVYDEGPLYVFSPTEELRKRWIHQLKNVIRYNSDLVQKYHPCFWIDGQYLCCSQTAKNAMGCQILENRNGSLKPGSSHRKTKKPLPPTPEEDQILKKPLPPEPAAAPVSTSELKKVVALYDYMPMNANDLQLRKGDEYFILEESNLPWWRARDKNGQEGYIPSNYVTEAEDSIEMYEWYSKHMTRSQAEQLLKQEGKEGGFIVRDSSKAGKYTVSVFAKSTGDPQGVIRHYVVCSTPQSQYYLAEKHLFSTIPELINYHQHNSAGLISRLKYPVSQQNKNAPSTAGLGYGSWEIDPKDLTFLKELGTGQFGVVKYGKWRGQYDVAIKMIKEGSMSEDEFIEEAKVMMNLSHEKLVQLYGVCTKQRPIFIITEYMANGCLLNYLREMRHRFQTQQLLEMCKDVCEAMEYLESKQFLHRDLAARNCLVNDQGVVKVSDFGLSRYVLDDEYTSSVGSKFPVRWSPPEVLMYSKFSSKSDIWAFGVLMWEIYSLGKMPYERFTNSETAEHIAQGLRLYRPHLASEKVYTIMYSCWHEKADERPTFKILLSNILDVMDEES
BTK recombinant protein, sequence (Q06187 whole entry): as above

For the compound `CC1(C)Cc2cc3c(=O)n(-c4nccc(-c5cc(Nc6cc7n(n6)CCNC7)c6ncnn6c5)c4CO)ccn3c2C1` [Compound 17], the results for the IC50 in assay [1] and in assay [2] were 26 nM and 4 nM, respectively.
Turning to `C[C@H]1CN(C(CO)CO)CCN1c1ccc(Nc2cc(-c3ccnc(-n4ccn5c6c(cc5c4=O)CC(C)(C)C6)c3CO)cn(C)c2=O)nc1` [Compound 185], the IC50 (at BTK recombinant protein; in assay [2]) was 13 nM throughout.
Take `C[C@@H]1CN(c2ccc(Nc3cc(-c4ccnc(-n5ccn6c7c(cc6c5=O)CC(C)(C)C7)c4CO)nn(C)c3=O)nc2)[C@@H](C)CN1C1COC1` [Compound 5]: the figures for the concentration for half-maximal inhibition (IC50) (in assay [1]; on BTK recombinant protein) were 2 nM and 9 nM, respectively.
With `Cn1cc(-c2ccnc(-n3ccn4c5c(cc4c3=O)CC(C)(C)C5)c2CO)cc(Nc2ccccc2)c1=O` [Compound 77], the IC50 stood at 441 nM at BTK recombinant protein and 132 nM in assay [2].
For `COCCN1C[C@H](C)N(c2ccc(Nc3cc(-c4ccnc(-n5ncn6c7c(cc6c5=O)CC(C)(C)C7)c4CO)cn(C)c3=O)nc2)C[C@H]1C` [Compound 207], the figures for the IC50 (on BTK recombinant protein; in assay [2]) were 11 nM and 8 nM, respectively.
For `Cn1cc(-c2ccnc(-n3ncn4c5c(cc4c3=O)CC(C)(C)C5)c2CO)cc(Nc2cc3n(n2)CCN(C2CC2)C3)c1=O` [Compound 171] the same measures were 13 nM and 11 nM.
For `COCCN1CCN(c2ccc(Nc3cc(-c4ccnc(-n5ccn6c7c(cc6c5=O)CC(C)(C)C7)c4CO)cn(C)c3=O)nc2)C(C)(C)C1` [Compound 226] the same measures were 17 nM and 11 nM.
With `Cn1cc(-c2ccnc(-n3ccn4c5c(cc4c3=O)CC(C)(C)C5)c2CO)cc(Nc2cc3n(n2)CCN(C2COC2)C3)c1=O` [Compound 124], the figures for the IC50 (on BTK recombinant protein; in assay [2]) were 6 nM and 7 nM, respectively.
For `C[C@H]1CN(C2COC2)CCN1c1ccc(Nc2cc(-c3ccnc(-n4ncn5c(cc6ccccc65)c4=O)c3CO)cn(C)c2=O)nc1` [Compound 151] the same measures were 2 nM and 28 nM.
For `Cn1cc(-c2ccnc(-n3ccn4c5c(cc4c3=O)CC(C)(C)C5)c2CO)cc(Nc2ccc(N3C4CC3CN(C3COC3)C4)cn2)c1=O` [Compound 235] the same measures were 22 nM and 13 nM.
`COCCN1CCn2nc(Nc3cc(-c4ccnc(-n5ncn6c7c(cc6c5=O)CC(C)(C)C7)c4CO)cn(C)c3=O)cc2C1` [Compound 107]: the IC50 at BTK recombinant protein came to 12 nM; in assay [2], 2 nM.
For `CC1Cc2cc3c(=O)n(-c4nccc(-c5cc(Nc6ccc(N7CCN(C8COC8)C[C@@H]7C)cn6)c(=O)n(C)c5)c4CO)ccn3c2C1` (mixture of isomers) [Compound 160] the same measures were 3 nM and 11 nM.
Take `CC(C)n1cc(Nc2cc(-c3ccnc(-n4ccn5c6c(cc5c4=O)CC(C)(C)C6)c3CO)cn3ncnc23)nn1` [Compound 18]: the IC50 (on BTK recombinant protein; in assay [2]) was 4 nM throughout.
For `CC1c2cc(Nc3cc(-c4ccnc(-n5ncn6c7c(cc6c5=O)CC(C)(C)C7)c4CO)cn(C)c3=O)nn2CCN1C1COC1` (stereo not drawn) [Compound 118], the IC50 is 5 nM at BTK recombinant protein and 1 nM in assay [2].
Taken in the same sequence, the figures for `C[C@H]1CN(C2COC2)CCN1c1ccc(Nc2cc(-c3ccnc(-n4ncn5c6c(cc5c4=O)CC(C)(C)C6)c3CO)cn(C)c2=O)nn1` [Compound 213] were 15 nM and 15 nM.
With `COCc1cc(Nc2cc(-c3ccnc(-n4ccn5c6c(cc5c4=O)CC(C)(C)C6)c3CO)cn(C)c2=O)nn1C` [Compound 154], the figures for the IC50 (on BTK recombinant protein; in assay [2]) were 8 nM and 13 nM, respectively.
For `Cn1cc(-c2ccnc(-n3ccn4c5c(cc4c3=O)CC(C)(C)C5)c2CO)cc(Nc2ccc(NC3CCCOC3)cn2)c1=O` (stereo not drawn) [Compound 45] the same measures were 11 nM and 5 nM.
`COC1CN(c2ccc(Nc3cc(-c4ccnc(-n5ncn6c7c(cc6c5=O)CC(C)(C)C7)c4CO)cn(C)c3=O)nc2)C1` [Compound 139]: the figures for the half-maximal inhibitory concentration (IC50) (at BTK recombinant protein; in assay [2]) were 39 nM and 11 nM, respectively.
With `COCCN1CCN(c2ccc(Nc3cc(-c4ccnc(-n5ncn6c7c(cc6c5=O)CC(C)(C)C7)c4CO)cn(C)c3=O)nc2)C(C)(C)C1` [Compound 220], the IC50 was 5 nM at BTK recombinant protein and 16 nM in assay [2].
For `Cn1cc(-c2ccnc(-n3ccn4c5c(cc4c3=O)CC(C)(C)C5)c2CO)cc(Nc2ccc(N3C[C@@H]4C[C@H]3CN4C3COC3)cn2)c1=O` [Compound 230] the same measures were 29 nM and 20 nM.
Taken in the same sequence, the figures for `C[C@H]1CN(C2COC2)CCN1c1ccc(Nc2cc(-c3ccnc(-n4ccn5c6c(cc5c4=O)COCC6)c3CO)cn(C)c2=O)nc1` [Compound 93] were 49 nM and 46 nM.
Taken in the same sequence, the figures for `C[C@@H]1CN(c2ccc(Nc3cc(-c4ccnc(-n5ncn6c7c(cc6c5=O)CC(C)(C)C7)c4CO)cn(C)c3=O)nc2)[C@@H](C)CN1C1COC1` [Compound 193] were 12 nM and 6 nM.
On to `Cn1cc(-c2ccnc(-n3ncn4c5c(cc4c3=O)CC(C)(C)C5)c2CO)cc(Nc2ccc(N3CCN(C4COC4)CC3(C)C)cn2)c1=O` [Compound 191], for which the IC50 on BTK recombinant protein came to 11 nM; in assay [2], 10 nM.
Taken in the same sequence, the figures for `C[C@@H]1CN(c2ccc(Nc3cc(-c4ccnc(-n5ccn6c(c(F)c7cc(F)ccc76)c5=O)c4CO)cn(C)c3=O)nc2)[C@@H](C)CN1C1COC1` [Compound 61] were 4 nM and 2 nM.
As for `COc1ccc(Nc2cc(-c3ccnc(-n4ncn5c6c(cc5c4=O)CC(C)(C)C6)c3CO)cn(C)c2=O)nc1` [Compound 133], the values for the IC50 (at BTK recombinant protein; in assay [2]) were 33 nM and 13 nM, respectively.
Regarding `C[C@H]1CN(C2COC2)CCN1c1ccc(Nc2cc(-c3ccnc(-n4ncn5c6c(cc5c4=O)CCCCC6)c3CO)cn(C)c2=O)nc1` [Compound 150], the IC50 (on BTK recombinant protein; in assay [2]) was 12 nM throughout.
`C[C@H]1CN(C2COC2)CCN1c1ccc(Nc2cc(-c3ccnc(-n4ccn5c6c(cc5c4=O)CC(C)(C)C6O)c3CO)cn(C)c2=O)nc1` (mixture of isomers) [Compound 182]: the IC50 on BTK recombinant protein was determined as 8 nM; in assay [2] it was 34 nM.
Taken in the same sequence, the figures for `CC(C)n1cc(Nc2cc(-c3ccnc(-n4ccn5c6c(cc5c4=O)CC(C)(C)C6)c3CO)cn(C)c2=O)nn1` [Compound 6] were 2 nM and 2 nM.
For `Cc1cc(Nc2cc(-c3ccnc(-n4ccn5c6c(cc5c4=O)CC(C)(C)C6)c3CO)cn(C)c2=O)no1` [Compound 87] the same measures were 11 nM and 3 nM.
For `C[C@H]1CN(C2COC2)CCN1c1ccc(Nc2cc(-c3ccnc(-n4ccn5c(cc6cccnc65)c4=O)c3CO)cn(C)c2=O)nc1` [Compound 67] the same measures were 82 nM and 60 nM.
`COCCN1CCN(c2ccc(Nc3cc(-c4ccnc(-n5ncn6c7c(cc6c5=O)CC(C)(C)C7)c4CO)cn(C)c3=O)nc2)[C@@H](C)C1` [Compound 206]: the concentration for half-maximal inhibition (IC50) came to 13 nM at BTK recombinant protein and 7 nM in assay [2].
Consider `Cn1cc(-c2ccnc(-n3ccn4c5c(cc4c3=O)CC(C)(C)C5)c2CO)cc(Nc2cc3n(n2)CCOC3)c1=O` [Compound 162], for which the IC50 is 1 nM at BTK recombinant protein and 6 nM in assay [2].
Taken in the same sequence, the figures for `C[C@H]1COCCN1c1ccc(Nc2cc(-c3ccnc(-n4ccn5c6c(cc5c4=O)CCC6)c3CO)cn(C)c2=O)nc1` [Compound 189] were 39 nM and 51 nM.
